We go through two molecules from ChEMBL document CHEMBL2311245, “Hypoxia-selective O6-alkylguanine-DNA alkyltransferase inhibitors: design, synthesis, and evaluation of 6-(benzyloxy)-2-(aryldiazenyl)-9H-purines as prodrugs of O6-benzylguanine” (J Med Chem, 2013).

Active and inactive are the calls of the source. No cut-off for these calls is given here.

Type in all cases: cell-based
In data set [1] the target is T1, Methylated-DNA--protein-cysteine methyltransferase (Homo sapiens) (UniProt P16455).
T1 sequence (whole entry): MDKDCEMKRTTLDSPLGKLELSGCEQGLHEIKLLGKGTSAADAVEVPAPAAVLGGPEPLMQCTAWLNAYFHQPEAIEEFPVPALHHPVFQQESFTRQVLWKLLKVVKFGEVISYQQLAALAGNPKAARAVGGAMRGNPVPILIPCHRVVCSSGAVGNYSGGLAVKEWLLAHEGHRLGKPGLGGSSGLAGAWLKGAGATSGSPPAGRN
The experiment in a line: Inhibition of AGT in human DU145 cells assessed as potentiation of laromustine-induced cytotoxicity under hypoxic condition at >10 uM treated 4 hrs prior to laromustine treatment measured after 24 hrs by clonogenic assay. The following applies: DU-145.

A further data set deals with DU-145. The experiment in a line: Prodrug activation in human DU145 cells assessed as O6-benzylguanine formation under normoxic condition at 50 uM over 3 hrs by HPLC analysis. To be noted: du-145, 3 h.
For another data set, the system named is EMT6. The experiment in a line: Prodrug activation in mouse EMT6 cells assessed as O6-benzylguanine formation under normoxic condition at 50 uM after 3 hrs by HPLC analysis. To be noted: emt6, 3 h.
In data set [2] the target is T1, Methylated-DNA--protein-cysteine methyltransferase (Homo sapiens). As to the kind of experiment: Inhibition of AGT in human DU145 cells assessed as potentiation of laromustine-induced cytotoxicity under normoxic condition up to 10 uM treated 4 hrs prior to laromustine treatment measured after 24 hrs by clonogenic assay. To be noted: DU-145.
The target is the same in data set [3]. As to the kind of experiment: Inhibition of AGT in human DU145 cells assessed as potentiation of laromustine-induced cytotoxicity under hypoxic condition up to 10 uM treated 4 hrs prior to laromustine treatment measured after 24 hrs by clonogenic assay. The following applies: DU-145.
The target is the same in data set [4]. The experiment in a line: Inhibition of AGT in human DU145 cells assessed as potentiation of laromustine-induced cytotoxicity under normoxic condition up to 50 uM treated 4 hrs prior to laromustine treatment measured after 24 hrs by clonogenic assay. To be noted: DU-145.
Data set [5] shares this target. As to the kind of experiment: Inhibition of AGT in human DU145 cells assessed as potentiation of laromustine-induced cytotoxicity under hypoxic condition up to 50 uM treated 4 hrs prior to laromustine treatment measured after 24 hrs by clonogenic assay. To be noted: DU-145.

Turning to `CN(C)c1ccc(/N=N/c2nc(OCc3ccccc3)c3nc[nH]c3n2)cc1`, the inhibition entry in data set [1] and in data set [3] was “Active” in each case. The Drug metabolism entry in the data set with DU-145 and with EMT6 was “Not Active” throughout. In data set [2], the inhibition result was “inactive”.
As for `CN1CCN(c2ccc(/N=N/c3nc(OCc4ccccc4)c4nc[nH]c4n3)cc2)CC1`, the inhibition result in data set [4] was “inactive”. Besides, in data set [5], the inhibition entry was “Active”.
